Source: patent US20230024521A1, “JAK INHIBITORS” (Vimalan Biosciences, Inc., priority 2019, published 2023)

Assays:
Assay type in all cases: biochemical
JAK3 = target: T1, JAK3 (Homo sapiens, UniProt P52333); assay: JAK/TYK2 assay (Kinase Glo luminescence): Jak3 kinase assay; settings: 1.5 nM enzyme, 2 uM ATP, 4 uM pEY, 1 hr; read-out: Jak3 kinase assay: IC50 Geomean
T1 sequence (P52333 1-1124): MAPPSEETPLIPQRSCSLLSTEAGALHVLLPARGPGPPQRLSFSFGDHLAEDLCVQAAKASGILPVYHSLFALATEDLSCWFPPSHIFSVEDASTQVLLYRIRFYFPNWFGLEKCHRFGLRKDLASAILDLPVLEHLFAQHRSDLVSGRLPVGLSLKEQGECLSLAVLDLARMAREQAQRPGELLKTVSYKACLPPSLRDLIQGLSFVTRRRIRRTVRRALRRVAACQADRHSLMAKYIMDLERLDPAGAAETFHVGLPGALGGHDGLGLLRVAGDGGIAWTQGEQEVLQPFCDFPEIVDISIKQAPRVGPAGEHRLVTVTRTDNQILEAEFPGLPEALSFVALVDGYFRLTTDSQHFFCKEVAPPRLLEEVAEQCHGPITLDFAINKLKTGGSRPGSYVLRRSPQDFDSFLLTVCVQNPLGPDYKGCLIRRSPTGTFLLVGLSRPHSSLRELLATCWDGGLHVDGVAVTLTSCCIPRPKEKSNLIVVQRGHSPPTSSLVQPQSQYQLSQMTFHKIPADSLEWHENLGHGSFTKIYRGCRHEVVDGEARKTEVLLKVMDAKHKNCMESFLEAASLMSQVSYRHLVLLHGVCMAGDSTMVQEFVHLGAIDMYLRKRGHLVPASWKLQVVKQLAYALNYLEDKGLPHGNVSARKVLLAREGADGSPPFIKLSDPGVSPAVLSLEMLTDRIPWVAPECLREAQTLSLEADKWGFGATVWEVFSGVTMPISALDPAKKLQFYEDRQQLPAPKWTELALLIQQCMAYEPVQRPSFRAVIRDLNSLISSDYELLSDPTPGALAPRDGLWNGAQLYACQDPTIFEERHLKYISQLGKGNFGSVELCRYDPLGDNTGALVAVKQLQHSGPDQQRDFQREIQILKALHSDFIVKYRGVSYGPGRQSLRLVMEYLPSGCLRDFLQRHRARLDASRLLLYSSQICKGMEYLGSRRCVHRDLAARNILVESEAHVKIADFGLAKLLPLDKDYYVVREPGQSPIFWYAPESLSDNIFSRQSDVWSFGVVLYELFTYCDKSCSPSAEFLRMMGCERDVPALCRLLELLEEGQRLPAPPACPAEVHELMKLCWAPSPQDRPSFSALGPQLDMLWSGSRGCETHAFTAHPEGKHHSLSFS
Procedure: (§1) Example A: JAK/TYK2 Assay 10 mM test compound stock or 1 mM control compound stock (tofocitinib, ruxolitinib or staurosporine) in DMSO was diluted to 0.4 mM in DMSO. A 3-fold series dilution was then performed in DMSO to generate 10 different compound concentrations. The assay was carried out in 384-well white plate. 0.5 μL of 40× compound DMSO solution at different concentrations was mixed with 10 uL 2× enzyme prepared in reaction buffer (20 mM HEPES, 10 mM MgCl2, 0.01% Tween, 1 mM DTT, pH 7.5). 10 uL 2× substrate mixture prepared in reaction buffer was then added to start the reaction. A short spin was done to settle down all solutions to the bottom of the plate. Final concentrations of test compound in the reaction mixture were 10000, 3333, 1111, 370, 123, 41.2, 13.7, 4.57, 1.52 and 0.51 nM, Concentrations of control compound were ten times less. Enzymatic reaction was conducted at 25° C. for 1-2 hours. 10 uL of Kinase Glo Reagents was added to stop the reaction and generate the luminescent signal which was measured using Envision. Luminescence signal was inversely related to kinase activity. […] The mixture without any compound was the positive control. [table]

TYK2 = TYK2 (Homo sapiens, UniProt P29597); assay: JAK/TYK2 assay (Kinase Glo luminescence): Tyk2 kinase assay; settings: 9 nM enzyme, 2 uM ATP, 30 uM IRS-1, 1 hr; read-out: Tyk2 kinase assay: IC50 Geomean
Sequence of TYK2 (P29597 whole entry, species assumed): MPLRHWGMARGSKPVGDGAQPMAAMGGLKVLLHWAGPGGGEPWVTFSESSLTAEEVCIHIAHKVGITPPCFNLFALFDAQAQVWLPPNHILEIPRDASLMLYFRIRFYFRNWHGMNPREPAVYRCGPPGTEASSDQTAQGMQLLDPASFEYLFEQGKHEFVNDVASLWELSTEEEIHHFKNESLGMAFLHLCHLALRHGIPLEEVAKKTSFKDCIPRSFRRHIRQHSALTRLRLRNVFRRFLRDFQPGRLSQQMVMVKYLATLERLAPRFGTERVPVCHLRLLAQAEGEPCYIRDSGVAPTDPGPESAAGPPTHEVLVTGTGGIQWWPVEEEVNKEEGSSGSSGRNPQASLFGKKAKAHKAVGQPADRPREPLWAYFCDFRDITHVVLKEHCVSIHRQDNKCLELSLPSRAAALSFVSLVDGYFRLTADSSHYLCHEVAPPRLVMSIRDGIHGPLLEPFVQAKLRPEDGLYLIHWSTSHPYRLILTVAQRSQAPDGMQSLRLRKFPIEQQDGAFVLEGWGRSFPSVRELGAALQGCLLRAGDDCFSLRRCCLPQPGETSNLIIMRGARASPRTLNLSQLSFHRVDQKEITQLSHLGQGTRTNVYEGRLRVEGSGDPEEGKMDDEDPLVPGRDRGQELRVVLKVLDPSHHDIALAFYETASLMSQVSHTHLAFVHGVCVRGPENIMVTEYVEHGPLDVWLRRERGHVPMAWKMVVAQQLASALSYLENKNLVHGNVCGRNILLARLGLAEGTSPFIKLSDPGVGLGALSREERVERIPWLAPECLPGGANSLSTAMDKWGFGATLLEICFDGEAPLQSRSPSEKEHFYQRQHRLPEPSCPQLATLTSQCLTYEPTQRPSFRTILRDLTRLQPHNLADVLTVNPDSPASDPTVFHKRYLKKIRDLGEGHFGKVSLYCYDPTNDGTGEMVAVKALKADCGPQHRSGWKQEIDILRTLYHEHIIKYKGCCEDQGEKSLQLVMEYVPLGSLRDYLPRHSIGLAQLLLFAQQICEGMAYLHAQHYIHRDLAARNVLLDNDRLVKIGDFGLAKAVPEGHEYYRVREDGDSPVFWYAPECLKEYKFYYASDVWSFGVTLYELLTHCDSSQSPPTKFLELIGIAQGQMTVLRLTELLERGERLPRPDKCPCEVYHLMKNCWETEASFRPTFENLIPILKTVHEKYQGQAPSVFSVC
Procedure: as §1

JAK2 = JAK2 (Homo sapiens, UniProt O60674); assay: JAK/TYK2 assay (Kinase Glo luminescence): Jak2 kinase assay; settings: 0.8 nM enzyme, 2 uM ATP, 4 uM pEY, 1 hr; read-out: Jak2 kinase assay: IC50 Geomean
Sequence of JAK2 (O60674 whole entry, species assumed): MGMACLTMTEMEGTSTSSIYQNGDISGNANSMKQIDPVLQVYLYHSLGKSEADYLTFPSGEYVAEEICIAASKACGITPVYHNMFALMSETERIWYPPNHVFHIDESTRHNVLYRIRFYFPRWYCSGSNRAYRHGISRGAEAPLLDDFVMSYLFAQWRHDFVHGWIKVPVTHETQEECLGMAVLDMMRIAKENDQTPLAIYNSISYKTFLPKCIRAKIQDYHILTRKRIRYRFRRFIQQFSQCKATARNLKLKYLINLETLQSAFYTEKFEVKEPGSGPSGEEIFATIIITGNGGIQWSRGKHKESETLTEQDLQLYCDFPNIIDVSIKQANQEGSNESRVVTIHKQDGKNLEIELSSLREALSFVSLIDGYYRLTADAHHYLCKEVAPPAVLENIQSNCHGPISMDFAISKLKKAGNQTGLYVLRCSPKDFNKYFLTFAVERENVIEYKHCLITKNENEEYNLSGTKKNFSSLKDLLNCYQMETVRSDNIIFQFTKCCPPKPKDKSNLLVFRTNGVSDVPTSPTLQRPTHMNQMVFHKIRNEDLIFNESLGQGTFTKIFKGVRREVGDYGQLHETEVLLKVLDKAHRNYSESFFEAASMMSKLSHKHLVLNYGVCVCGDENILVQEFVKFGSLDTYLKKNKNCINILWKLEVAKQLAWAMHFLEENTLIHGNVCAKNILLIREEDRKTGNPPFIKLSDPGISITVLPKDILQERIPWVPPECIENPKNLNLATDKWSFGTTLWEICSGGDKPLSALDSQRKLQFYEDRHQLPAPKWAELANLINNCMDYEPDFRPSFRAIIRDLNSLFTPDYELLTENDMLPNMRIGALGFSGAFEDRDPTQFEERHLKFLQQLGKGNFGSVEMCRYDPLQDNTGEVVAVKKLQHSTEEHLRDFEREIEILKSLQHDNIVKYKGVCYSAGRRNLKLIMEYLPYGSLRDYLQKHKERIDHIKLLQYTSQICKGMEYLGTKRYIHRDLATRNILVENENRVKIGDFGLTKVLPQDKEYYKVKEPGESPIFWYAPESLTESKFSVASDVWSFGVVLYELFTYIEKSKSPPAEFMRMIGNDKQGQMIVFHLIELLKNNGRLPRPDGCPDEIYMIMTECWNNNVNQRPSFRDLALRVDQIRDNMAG
Procedure: as §1

JAK1 = JAK1 (Homo sapiens, UniProt P23458); assay: JAK/TYK2 assay (Kinase Glo luminescence): Jak1 kinase assay; settings: 7.5 nM enzyme, 2 uM ATP, 30 uM IRS-1, 1 hr
Sequence of JAK1 (P23458 whole entry, species assumed): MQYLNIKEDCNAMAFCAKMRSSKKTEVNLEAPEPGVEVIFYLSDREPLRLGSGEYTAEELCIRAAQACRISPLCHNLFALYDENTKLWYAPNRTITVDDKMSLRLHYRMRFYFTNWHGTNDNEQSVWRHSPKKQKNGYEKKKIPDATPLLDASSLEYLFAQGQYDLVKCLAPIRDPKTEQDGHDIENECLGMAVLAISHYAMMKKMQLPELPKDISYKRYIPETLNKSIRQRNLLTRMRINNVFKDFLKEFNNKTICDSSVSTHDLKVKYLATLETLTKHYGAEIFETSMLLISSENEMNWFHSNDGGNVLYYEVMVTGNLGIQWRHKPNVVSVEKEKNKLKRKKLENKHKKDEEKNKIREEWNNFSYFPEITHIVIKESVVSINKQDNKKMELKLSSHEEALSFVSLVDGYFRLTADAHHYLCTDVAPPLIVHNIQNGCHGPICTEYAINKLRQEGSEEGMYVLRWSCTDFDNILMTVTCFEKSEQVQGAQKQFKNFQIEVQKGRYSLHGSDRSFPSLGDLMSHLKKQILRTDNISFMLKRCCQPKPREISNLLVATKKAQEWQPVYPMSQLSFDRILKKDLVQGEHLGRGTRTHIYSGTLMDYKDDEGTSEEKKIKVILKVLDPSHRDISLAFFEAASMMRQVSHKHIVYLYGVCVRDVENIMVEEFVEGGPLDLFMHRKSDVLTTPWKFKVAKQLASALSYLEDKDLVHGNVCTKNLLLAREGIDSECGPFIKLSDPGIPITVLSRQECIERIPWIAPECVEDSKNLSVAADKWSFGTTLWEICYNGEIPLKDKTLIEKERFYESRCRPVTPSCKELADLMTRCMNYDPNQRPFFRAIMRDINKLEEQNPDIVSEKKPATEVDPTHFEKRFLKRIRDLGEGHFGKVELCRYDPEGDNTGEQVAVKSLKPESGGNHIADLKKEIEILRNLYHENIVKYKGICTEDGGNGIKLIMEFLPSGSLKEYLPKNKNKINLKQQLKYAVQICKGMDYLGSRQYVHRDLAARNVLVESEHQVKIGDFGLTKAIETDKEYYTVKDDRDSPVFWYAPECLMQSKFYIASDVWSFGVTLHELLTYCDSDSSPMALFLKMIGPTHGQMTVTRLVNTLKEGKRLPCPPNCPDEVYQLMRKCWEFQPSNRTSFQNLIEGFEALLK
Procedure: as §1

Measured: IC50

CCC(CC)Cn1ccc2cnc(Nc3cnn(CC(N)=O)c3)nc21 [Example 7, 2-(4-((7-(2-ethylbutyl)-7H-pyrrolo[2,3-d]pyrimidin-2-yl)amino)-1H-pyrazol-1-yl) acetamide]
< 100 nM: all assays above

CC[C@@H](Cn1ccc2cnc(Nc3cnn(C4CCNC4=O)c3)nc21)C(C)C (stereo partly shown) [Example 8]
< 100 nM: all assays above

CC[C@H](Cn1ccc2cnc(Nc3cnn(CC(=O)N4CCOC4=O)c3)nc21)C(C)C [Example 3, (5)-3-(2-(4-((7-(2-ethyl-3-methylbutyl)-7H-pyrrolo[2,3-d]pyrimidin-2-yl)amino)-1H-pyrazol-1-yl)acetyl) oxazolidin-2-one]
< 100 nM: all assays above

CC[C@H](Cn1ccc2cnc(Nc3cnn(CC(N)=O)c3)nc21)C(C)C [Example 1, (S)-2-(4-((7-(2-ethyl-3-methylbutyl)-7H-pyrrolo[2,3-d]pyrimidin-2-yl)amino)-1H-pyrazol-1-yl) acetamide]
< 100 nM: all assays above
